PMC10568103, “Quantification of soluble epoxide hydrolase inhibitors in experimental and clinical samples using the nanobody-based ELISA” (Journal of Pharmaceutical Analysis, 2023)
Blank lines part the entries; values can stand above or below the compound they belong to.

Columns and labels:
[1] = tested on: Nb-TP02; assay: Nb-based indirect competitive ELISA for TPPU (TPPU immunoassay); format: binding, llama; settings: for TPPU immunoassay CR: CR% = IC50 (TPPU)/IC50 (analog) × 100%; for TPPU immunoassay IC50: Nb-TP02, cAg 6-OVA
From the text: The limit of detection (LOD) of Nb-based ELISAs for detecting the concentrations of the sEHI was defined as the concentration of sEHI that provided a 10% inhibition rate (IC10 value). […]

[2] = tested on: Nb-EC03; assay: Nb-based indirect competitive ELISA for EC5026 (EC5026 immunoassay); settings: for EC5026 immunoassay CR: CR% = IC50 (EC5026)/IC50 (analog) × 100%; for EC5026 immunoassay IC50: Nb-EC03, cAg 2-BSA
Method: (d) 100 μL of HRP-anti-HA was introduced, incubated and shaken for another 60 min; (e) after the final washing step, 100 μL of the TMB substrate solution was added and incubated for 15 min, followed by being stopped by 50 μL of H2SO4 solution (1.0 M). […] The linear range was established between the IC20 value and the IC80 value.

[3] = biological target: T1, human sEH (Homo sapiens, UniProt P34913); assay: Activity on the target sEH enzyme; format: biochemical
T1 sequence (P34913 1-555): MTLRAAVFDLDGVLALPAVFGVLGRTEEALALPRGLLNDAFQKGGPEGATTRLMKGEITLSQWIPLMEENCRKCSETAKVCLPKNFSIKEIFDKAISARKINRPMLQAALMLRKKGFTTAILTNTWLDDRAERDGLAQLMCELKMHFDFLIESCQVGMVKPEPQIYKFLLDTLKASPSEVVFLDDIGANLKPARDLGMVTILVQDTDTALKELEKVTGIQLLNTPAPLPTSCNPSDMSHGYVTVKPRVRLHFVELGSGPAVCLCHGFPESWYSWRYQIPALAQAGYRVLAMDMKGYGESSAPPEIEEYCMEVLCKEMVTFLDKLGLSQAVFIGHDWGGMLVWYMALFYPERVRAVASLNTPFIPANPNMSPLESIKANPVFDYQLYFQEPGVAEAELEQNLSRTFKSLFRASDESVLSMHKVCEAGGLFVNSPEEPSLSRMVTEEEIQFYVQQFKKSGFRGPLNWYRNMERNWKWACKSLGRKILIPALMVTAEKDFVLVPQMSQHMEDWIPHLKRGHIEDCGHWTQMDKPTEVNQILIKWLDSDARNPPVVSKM

[4] = LC-MS analysis of urine samples from human clinical trial with EC5026; format: in vivo
Method: To assess the feasibility of Nb-based ELISAs for EC5026 and TPPU, the human urine and FBS were used as the matrix for precision and accuracy determination. The precision is shown as coefficient variation (CV%). The accuracy is expressed by the recovery, and the recovery is calculated as (Found concentration/Spiked concentration) × 100%. The standard solutions of EC5026 or TPPU were spiked blindly into human urine and FBS to obtain final concentrations of 1.25, 5 and 20 ng/mL, respectively. The experimental urine samples were collected from participants in the human clinical trial for EC5026, and the supernatant was collected by centrifugation (10,000 g, 5 min, 4 °C). The processed clinical samples were divided into two aliquots. One was diluted 10 times and then was detected by the Nb-based ELISA, and the other was for the LC-MS analysis directly in a bind fashion by different scientists.
The urine samples were analyzed by an LC-MS/MS method using Waters (Milford, MA, USA) Acquity UPLC system with Waters Xevo TQS tandem mass spectrometer. The separation was implemented on a Phenomenex Kinetex 150 x 2 mm C18 column. The mobile phases are 0.1 % of acetic acid in water as phase A, 0.1% of acetic acid in methanol as phase B. The gradient of the separation started from 50% of B and increased to 63% of B at 3.6 min then ramped to 95% at 4 min. The flow rate was 0.4 mL/min. The mass spectrometer was operated with negative electrospray ionization. The MRM transitions are 404.2/194 for EC5026, 420.2/194 for both M1 and M2. The source parameters of mass spectrometer are: capillary voltage: –3 KV, desolvation temperature: 300°C, desolvation gas flow: 800 L/hr; cone: 150 L/min; nebulizer: 7 bar.

[5] = biological target: T1, human sEH; assay: Inhibition of human sEH in vitro (potency unit definition, assay of Jones et al.); format: biochemical; settings: 1 nM human sEH, read-out: 1 Potency unit: concentration permitting the inhibition of 50% of 1 nM of the human sEH
[6] = Subject 1, 0–8 h post exposure to EC5026
[7] = Subject 1, 8–16 h post exposure to EC5026
[8] = Subject 1, 16–24 h post exposure to EC5026
[9] = Subject 1, 24–32 h post exposure to EC5026
[10] = Subject 1, 32–40 h post exposure to EC5026
[11] = Subject 1, 40–48 h post exposure to EC5026
[12] = Subject 2, 0–8 h post exposure to EC5026
[13] = Subject 2, 8–16 h post exposure to EC5026
[14] = Subject 2, 16–24 h post exposure to EC5026
[15] = Subject 2, 24–32 h post exposure to EC5026
[16] = Subject 2, 32–40 h post exposure to EC5026
[17] = Subject 2, 40–48 h post exposure to EC5026
[18] = Subject 3, 0–8 h post exposure to EC5026
[19] = Subject 3, 8–16 h post exposure to EC5026
[20] = Subject 3, 16–24 h post exposure to EC5026
[21] = Subject 3, 24–32 h post exposure to EC5026
[22] = Subject 3, 32–40 h post exposure to EC5026
[23] = Subject 3, 40–48 h post exposure to EC5026

Structure (SMILES): Nc1ccc(OC(F)(F)F)c(F)c1 [Compound 14, 3-fluoro-4-(trifluoromethoxy)aniline]
IC50 [3]: > 50000 nM | TPPU immunoassay CR [1]: <0.01% | TPPU immunoassay IC50 [1]: >300000 ng/mL | EC5026 immunoassay CR [2]: <0.01% | EC5026 immunoassay IC50 [2]: >150000 ng/mL

Structure (SMILES): Nc1ccc(OC(F)(F)F)cc1 [Compound 15, 4-(trifluoromethoxy)aniline]
IC50 [3]: > 50000 nM | TPPU immunoassay CR [1]: <0.01% | TPPU immunoassay IC50 [1]: >300000 ng/mL | EC5026 immunoassay CR [2]: <0.01% | EC5026 immunoassay IC50 [2]: >150000 ng/mL

Structure (SMILES): C[C@H](C(=O)N1CCC(NC(=O)Nc2ccc(OC(F)(F)F)c(F)c2)CC1)[C@@H](C)O [M1, 1-(3-fluoro-4-(trifluoromethoxy)phenyl)-3-(1-((2S,3R)-3-hydroxy-2-methylbutanoyl)piperidin-4-yl)urea]
[M1] LC-MS analysis [4, 6]: 24.22 ng/mL | [M1] LC-MS analysis [4, 7]: 44.30 ng/mL | [M1] LC-MS analysis [4, 8]: 35.82 ng/mL | [M1] LC-MS analysis [4, 9]: 48.89 ng/mL | [M1] LC-MS analysis [4, 10]: 36.78 ng/mL | [M1] LC-MS analysis [4, 11]: 33.49 ng/mL | [M1] LC-MS analysis [4, 12]: 12.48 ng/mL | [M1] LC-MS analysis [4, 13]: 38.41 ng/mL | [M1] LC-MS analysis [4, 14]: 43.37 ng/mL | [M1] LC-MS analysis [4, 15]: 35.76 ng/mL | [M1] LC-MS analysis [4, 16]: 55.70 ng/mL | [M1] LC-MS analysis [4, 17]: 40.74 ng/mL | [M1] LC-MS analysis [4, 18]: 13.41 ng/mL | [M1] LC-MS analysis [4, 19]: 36.41 ng/mL | [M1] LC-MS analysis [4, 20]: 67.03 ng/mL | [M1] LC-MS analysis [4, 21]: 31.25 ng/mL | [M1] LC-MS analysis [4, 22]: 67.62 ng/mL | [M1] LC-MS analysis [4, 23]: 98.28 ng/mL | TPPU immunoassay CR [1]: 72.7% | TPPU immunoassay IC50 [1]: 4.10 ng/mL | IC50 [5]: 0.0961 nM | EC5026 immunoassay IC50 [2]: 1.47 ng/mL

Structure (SMILES): C[C@H](O)[C@H](C)C(=O)N1CCC(NC(=O)Nc2ccc(OC(F)(F)F)c(F)c2)CC1 [M2, 1-(3-fluoro-4-(trifluoromethoxy)phenyl)-3-(1-((2S,3S)-3-hydroxy-2-methylbutanoyl)piperidin-4-yl)urea]
[M2] LC-MS analysis [4, 6]: 28.66 ng/mL | [M2] LC-MS analysis [4, 7]: 61.59 ng/mL | [M2] LC-MS analysis [4, 8]: 51.04 ng/mL | [M2] LC-MS analysis [4, 9]: 67.21 ng/mL | [M2] LC-MS analysis [4, 10]: 47.44 ng/mL | [M2] LC-MS analysis [4, 11]: 43.94 ng/mL | [M2] LC-MS analysis [4, 12]: 12.99 ng/mL | [M2] LC-MS analysis [4, 13]: 53.46 ng/mL | [M2] LC-MS analysis [4, 14]: 59.34 ng/mL | [M2] LC-MS analysis [4, 15]: 45.69 ng/mL | [M2] LC-MS analysis [4, 16]: 75.89 ng/mL | [M2] LC-MS analysis [4, 17]: 52.38 ng/mL | [M2] LC-MS analysis [4, 18]: 14.93 ng/mL | [M2] LC-MS analysis [4, 19]: 50.31 ng/mL | [M2] LC-MS analysis [4, 20]: 106.12 ng/mL | [M2] LC-MS analysis [4, 21]: 44.20 ng/mL | [M2] LC-MS analysis [4, 22]: 103.57 ng/mL | [M2] LC-MS analysis [4, 23]: 158.70 ng/mL | TPPU immunoassay CR [1]: 59.4% | TPPU immunoassay IC50 [1]: 5.01 ng/mL | IC50 [5]: 0.0961 nM | EC5026 immunoassay IC50 [2]: 1.38 ng/mL

Structure (SMILES): CCC(=O)N1CCC(NC(=O)Nc2ccc(OC(F)(F)F)cc2)CC1 [TPPU, 1-trifluoromethoxyphenyl-3-(1-propionylpiperidin-4-yl)urea]
TPPU immunoassay CR [1]: 100% | Curve parameters IC50 ([1]; Nb-TP02, cAg 4-BSA (homologous)): 2.53 ng/mL | Curve parameters IC50 ([1]; Nb-TP02, cAg 4-OVA (homologous)): 2.76 ng/mL | Curve parameters IC50 ([1]; Nb-TP02, cAg 5-BSA (homologous)): 4.53 ng/mL | Curve parameters IC50 ([1]; Nb-TP02, cAg 5-OVA (homologous)): 2.44 ng/mL | Curve parameters IC50 ([1]; Nb-TP02, cAg 6-BSA (heterologous)): 2.40 ng/mL | TPPU immunoassay IC50 [1]: 2.98 ng/mL | EC5026 immunoassay CR [2]: 52.9% | EC5026 immunoassay IC50 [2]: 2.72 ng/mL

Continued, in another order:

TPPU immunoassay IC50 [1]: 8.91 ng/mL | EC5026 immunoassay CR [2]: 34.0% | EC5026 immunoassay IC50 [2]: 4.23 ng/mL
Structure (SMILES): O=C(Nc1ccc(OC(F)(F)F)c(F)c1)NC1CCNCC1 [Compound 11, 1-(3-fluoro-4-(trifluoromethoxy)phenyl)-3-(piperidin-4-yl)urea]
TPPU immunoassay CR [1]: 33.4%

TPPU immunoassay IC50 [1]: 11.66 ng/mL
Structure (SMILES): O=C(Nc1ccc(OC(F)(F)F)cc1)NC1CCNCC1 [Compound 12]
TPPU immunoassay CR [1]: 25.6%

[EC5026] LC-MS analysis [4, 6]: 2.96 ng/mL | [EC5026] LC-MS analysis [4, 7]: 1.41 ng/mL | [EC5026] LC-MS analysis [4, 8]: 1.81 ng/mL | [EC5026] LC-MS analysis [4, 9]: 1.43 ng/mL | [EC5026] LC-MS analysis [4, 10]: 1.63 ng/mL | [EC5026] LC-MS analysis [4, 11]: 1.24 ng/mL | [EC5026] LC-MS analysis [4, 12]: 3.01 ng/mL | [EC5026] LC-MS analysis [4, 13]: 5.57 ng/mL | [EC5026] LC-MS analysis [4, 14]: 4.86 ng/mL | [EC5026] LC-MS analysis [4, 15]: 2.84 ng/mL | [EC5026] LC-MS analysis [4, 16]: 3.46 ng/mL | [EC5026] LC-MS analysis [4, 17]: 2.01 ng/mL | [EC5026] LC-MS analysis [4, 18]: 6.53 ng/mL | [EC5026] LC-MS analysis [4, 19]: 4.69 ng/mL | [EC5026] LC-MS analysis [4, 20]: 2.59 ng/mL | [EC5026] LC-MS analysis [4, 21]: 2.98 ng/mL | [EC5026] LC-MS analysis [4, 22]: 2.06 ng/mL | [EC5026] LC-MS analysis [4, 23]: 1.18 ng/mL | TPPU immunoassay IC50 [1]: 3.44 ng/mL | EC5026 immunoassay CR [2]: 100% | Curve parameters IC50 ([2]; Nb-EC03, cAg 1-BSA (homologous)): 7.32 ng/mL | Curve parameters IC50 ([2]; Nb-EC03, cAg 1-OVA (homologous)): 5.68 ng/mL | EC5026 immunoassay IC50 [2]: 1.44 ng/mL | Curve parameters IC50 ([2]; Nb-EC03, cAg 2-OVA (homologous)): 1.48 ng/mL | Curve parameters IC50 ([2]; Nb-EC03, cAg 3-BSA (heterologous)): 11.45 ng/mL | Curve parameters IC50 ([2]; Nb-EC03, cAg 3-OVA (heterologous)): 12.49 ng/mL
Structure (SMILES): CC[C@H](C)C(=O)N1CCC(NC(=O)Nc2ccc(OC(F)(F)F)c(F)c2)CC1 [EC5026]
TPPU immunoassay CR [1]: 86.6%
